The source of these data is patent US20230157292A1, “SEED COATING FORMULA FOR CONTROLLING SOYBEAN SOUTHERN BLIGHT AND SOYBEAN SHEATH BLIGHT” (Institute of Plant Protection and Agro-products Safety, …, priority 2022, published 2023).

Data set [1] deals with Sclerotium rolfsii. Kind of data set: Hypha growth inhibition, toxicity determination for Sclerotium rolfsii. The class given is cell-based. As to conditions: PDA medium, 25° C. As to the method:
(§1) Fungicidal properties of Thifluzamide and Ipconazole were analyzed in detail.
(§2) Test targets were Rhizoctonia solani and Sclerotium rolfsii, but not limited herein. […] Hypha blocks having a diameter of 5 mm were made on the edges of pre-culture colonies by a sterilized puncher and respectively transferred onto different medium plates for culturing at 25° C. A hypha growth measurement method was adopted in the test to prepare drug-containing media according to different treatments; the hypha blocks having the diameter of 5 mm were made on the edges of pre-culture colonies by the sterilized puncher and respectively transferred onto medium plates having different drug contents; a colony diameter was measured by a crossing method; the colony diameter (mm) was measured; and a growth inhibition ratio was calculated by the following formulas: […]
(§3) The hypha growth inhibition ratio was converted into an inhibition probability value (y); the agent concentration was converted into a concentration logarithm (x); a toxic regression line was drawn by taking the concentration logarithm as a horizontal coordinate and taking the probability value as a vertical coordinate; a toxic regression equation of the single agents such as the Thfiluzamide and Ipconazole and a mixture thereof for pathogenic bacteria was solved; and the EC50 value and a related ratio r were calculated. […]

For data set [2], the system named is Rhizoctonia solani. Kind of data set: Hypha growth inhibition, toxicity determination for Rhizoctonia solani. The class given is cell-based. Conditions: PDA medium, 25° C. The method, then:
as §1, §2, §3

For data set [3] the following is noted: pH value of 5-9; cited from earlier work.
Data set [4] concerns rabbit. As to conditions: cited from earlier work.

Take `CC(C)C1CCC(Cc2ccc(Cl)cc2)C1(O)Cn1cncn1` (stereo not drawn) [Ipconazole, (1RS, 2SR, 5RS; 1RS, 2SR, 5 SR)-2-(4-chlorobenzyl)-5-isopropyl-1-(1H-1,2,4-triazole-1-ylmethyl) cyclopentanol]: the EC50 ppm in data set [1] was 0.0327 ppm; in data set [2] it was 0.0217 ppm.

Regarding `Cc1nc(C(F)(F)F)c(C(=O)Nc2c(Br)cc(OC(F)(F)F)cc2Br)s1` [Thifluzamide, 2′,6′-dibromo-2-methyl-4′-trifluoromethoxy-4-trifluoromethyl-1,3-thiadiazole-5-hydroxyanilide], the EC50 ppm in data set [1] is recorded as 0.1258 ppm; in data set [2], 0.154 ppm. Besides, in data set [3], the stability result is reported as “stable”. For the same compound, in data set [4], the “acute dermal LD50” value was above 2000 mg/kg.
